Test results published in patent US20240065261A1, “PENETRATING CRYOPROTECTION AGENTS AND METHODS OF MAKING AND USING SAME” (The Research Foundation for The State University of New York, priority 2020, published 2024).
Values joined by “and” are separate entries in the source; they are usually repeats but may differ in a detail not shown here. Equal entries are not always repeated.

Columns and labels:
[1] = system: 3T3 cells; assay: Cytotoxicity by CCK-8 kit, Example 3; assay type: cell-based; conditions: 48 hours
Procedure: Cytotoxicity: Cytotoxicity of EGL-3Pro and EGL-3Phe were tested by CCK-8 kit on 3T3 cells after incubating for 48 hours at different concentrations.

[2] = Water solubility; assay type: physicochemical; conditions: pH 7.4, aqueous buffer
[3] = system: 3T3 cells; assay: Cryopreservation, post-thaw recovery rate, Example 3; assay type: cell-based; conditions: frozen −80° C. in medium with 400 mM trehalose
Procedure: Cryopreservation: The cryopreservation effects of EGL-3Pro and EGL-3Phe were tested on 3T3 cells. The cells were incubated with 5 mM or 10 mM EGL-3Pro or 0.5 mM EGL-3Phe or medium only (two control groups) for 72 hours. After incubation, the cells were detached by treating […] pelleted by centrifuging (200×g). The cells were then resuspended in medium with 400 mM trehalose or 5% DMSO (for control 2 group) in cryovials and a small portion of cell suspension were used for counting pre-freeze cell number. The vials were directly put in −80° C. freezer and stored for at least 3 days. The cells were thawed in 37° C. water bath until ice melt, and resuspended in 10 mL fresh medium and pelleted by centrifuging (200×g). The cells were then resuspended in 1 mL fresh medium and counted by cell counter. The recovery rate was obtained by dividing post-thaw lived cell number by pre-freeze lived cell number.

[4] = system: NIH-3T3 cells; assay: Post-thaw total cell recovery of cryopreserved cells (trypan blue exclusion); assay type: cell-based; conditions: for Total recovery values compared with cells frozen in media containing 5% DMSO: incubated with 10 mM; for Post-thaw recovery (%) 0-hr / Post-thaw recovery (%) 24-hr / Post-thaw recovery (%) 48-hr: incubated with 10 mM for 48 h, frozen −80° C. 72 h in media with 400 mM trehalose, ±SEM
Procedure: The delivery of sugar alcohols into cells makes it possible to turn these molecules into intracellular CPAs. […] Total post-thaw cell recovery, defined as the ratio (%) of post-thaw live cells to the number of initially frozen live cells, which provides a more accurate measure of cryoprotective outcome than cell viability, was used to assess the cryoprotective effects of the diesters.
Systematic studies were then performed by incubating the cells (1) with each of diesters 1-4 (10 mM), (2) with unmodified sorbitol, mannitol, xylitol, or erythritol (10 mM), and (3) in medium without any of the diesters or sugar alcohols, at 37° C. for 48 h. The cells treated with diesters 1-4 and the four sugar alcohols were then transferred to freezing media consisting of DMEM, 10% FBS and 400 mM trehalose. The cells incubated with only the medium were divided into two portions, one being directly transferred to the freezing medium containing 400 mM trehalose (control 1) and the other being placed in a different freezing medium consisting of DMEM, 10% FBS and 5% DMSO but without trehalose (control 2). After being frozen at −80° C. for 72 h, the cells were thawed in a warm water bath at 37° C. until ice melted. The post-thaw cells were either immediately analyzed for their survival or were cultured in growth media (DMEM with 10% FBS) for 24 h and 48 h before being analyzed.
Incubation (for cryopreservation). NIH/3T3 cells were seeded into cell culture treated plates (100 mm) at a density of 2×10^4 cells/mL (10 mL/plate), allowed to adhere overnight and then incubated with different sample solutions (10 mL) for 48 hours at 37° C. under 5% CO2. Control cells were incubated with growth medium.
Cryopreservation. At the end of the incubation, the cells were rinsed with PBS (2 mL) and detached using 0.25% trypsin-EDTA (3 mL). The cells were pelleted (200×g, 5 min) and resuspended in growth medium with 400 mM trehalose except for the control-2 group. For control-2 group, cells were resuspended in growth medium with 5% DMSO (v/v). An aliquot of cells of each group was then removed for counting by a DeNovix Celldrop cell counter to obtain prefreeze number of viable cells. The remaining cell suspension was transferred into a 2 mL cryogenic vial. The vials were directly transferred to −80° C. freezer without controlling cooling rate and stored at −80° C. freezer for 3 days. To thaw, cryogenic vials were removed from −80° C. freezer and suspended in a 37° C. water bath until ice melt. To the contents of each vial 1 mL growth medium was added and centrifuged (200×g , 5 min). The supernatant was discarded and cell pellet was resuspended in 1 mL growth cell medium. An aliquot of cell suspension of each group was then removed for counting with a DeNovix Celldrop cell counter to obtain the number of viable cells at 0-hr post-thaw. The remaining cell suspension was split equally and resuspended into two cell culture treated plates (100 mm) with 10 mL growth medium in each plate. The plates were then maintained for either 24 hours or 48 hours at 37° C. under 5% CO2. After being cultured for either 24 hours or 48 hours, the cells were rinsed with PBS (2 mL) and detached using 0.25% trypsin-EDTA (3 mL). The cells were pelleted (200×g, 5 min) and resuspended in growth medium. The cell suspension was then analyzed by DeNovix Celldrop cell counter to obtain number of viable cells at either 24-hr or 48-hr post-thaw.
Trypan Blue Exclusion Assay. For all time points, a sample of cells was mixed 1:1 in 0.4% trypan blue and counted using a DeNovix Celldrop. Cell recovery was calculated as the ratio of viable cells to the number of cells initially frozen.

[5] = system: NIH-3T3 cells; assay: Post-thaw viability of cryopreserved NIH-3T3 cells (CCK-8), Example 1; assay type: cell-based; conditions: Table 3, frozen −80° C. 72 hours, 400 mM trehalose, 10% DMSO set as 100%
Procedure: Cryopreservation protocol. […] Discarded 95% of the old media and added 0.5 mL new DMEM (pH=7.4) with 10% FBS and 400 mM trehalose (filtered with 0.22 μm filter) and re-suspended the cells. • Transferred the cell culture to cryo-tube and stored the tubes at −80° C. for 3 days. • Thawed the cells at 37° C. in a water bath until ice melted. • Counted the cell density in each cryo-tube with cell counter. • Re-cultured the cells in 96-well plate with fresh DMEM (PH=7.4) with 10% FBS. (while keeping cell density the approximately the same for each well). • Used CCK-8 kit to test the post-thaw viability after certain time.

[6] = system: NIH-3T3 cells; assay: Live/dead fluorescence microscopy of post-thaw cells (calcein-AM / ethidium homodimer-1); assay type: cell-based; conditions: 24 h post-thaw; incubated with 10 mM for 48 h, frozen in media with 400 mM trehalose (FIG. 14)
Procedure: DIC and Fluorescence images capturing. NIH/3T3 cells were treated as the same as for cryopreservation experiment and were thawed in a 37° C. water bath until ice melt. Cells in each vial were then pelleted (200×g, 5 min), re-suspended in 1 mL fresh growth medium and plated into 96 well plate and grown for 24 hours. Each well was washed with sterile PBS (100 μL). Sterile PBS (200 μL) containing 2 μM calcein-AM and 4 μM ethidium homodimer-1 (EthD-1) was then added to each well. The 96-well plate was then incubated in a CO2 incubator at 37° C. for 30 min. Fresh cells without freezing were plated at similar density in 96-well plate as comparison. DIC and fluorescence microscopy images were captured at 509 and 580 nm on Axioplan 2 fluorescent microscope (Zeiss [Carl Zeiss], Thornwood, NY) with an Axiocam MRm camera (Zeiss). Axiovision 4 software (Zeiss) was used for image acquisition. Digital images were processed with ImageJ (imagej.nih.gov/ij/).

[7] = system: NIH-3T3 cells; assay: Cell growth curve; assay type: cell-based; conditions: 10 mM, incubated for up to 72 hrs (FIG. 17)
Procedure: Cell growth curve. NIH/3T3 cells were seeded into 6-well plates at a density of 5×10^4 cells/mL (2 mL/well), allowed to adhere overnight and then incubated with different sample solutions (2 mL) up to 72 hours at 37° C. under 5% CO2. Control cells were incubated with culture medium. After certain time incubation, cells were rinsed with PBS (1 mL), detached by 0.25% trypsin-EDTA (1 mL), pelleted (200×g, 5 min) and resuspended in PBS (1 mL). The cell number were obtained by a DeNovix Celldrop cell counter. The 0 hour was set as the time point just after overnight adhering.

[8] = system: NIH-3T3 cells; assay: Post-thaw total cell recovery of cryopreserved cells (trypan blue exclusion); assay type: cell-based; conditions: incubated with 5 and 10 mM; frozen in media with 400 mM trehalose (FIG. 12)
[9] = system: NIH-3T3 cells; assay: Cell size measurement after incubation with diesters; assay type: cell-based; conditions: 10 mM, 48 h incubation (FIG. 11)
Procedure: Incubation (for cell size measurement). NIH/3T3 cells were seeded into 6-well plates at a density of 5×10^4 cells/mL (2 mL/well), allowed to adhere overnight and then incubated with different sample solutions (2 mL) for 48 hours at 37° C. under 5% CO2. Control cells were incubated with culture medium.
Cell size measurement. At the end of the incubation, the cells were rinsed with PBS (1 mL) and detached by 0.25% trypsin-EDTA (1 mL). The cells were pelleted (200×g, 5 min) and resuspended in PBS (1 mL). The average cell size of the cell suspension was then obtained with a DeNovix Celldrop cell counter. Bright field/counted image and histogram for one count were attached as an example (FIG. 19). Average cell diameter and statistical analysis were obtained from the histograms.

[10] = incubated 36 hours at 5 mM without DMSO
[11] = incubated 36 hours at 10 mM without DMSO

Compound	Cytotoxicity ([1]; above 1 mM)	Cytotoxicity ([1]; at 0.1 mM)	Cytotoxicity ([1]; at 0.5 mM)	solubility [2]	0-hour post thaw recovery (%) ([3]; incubated with 0.5 mM for 72 hours)	Total recovery values compared with cells frozen in media containing 5% DMSO [4]	Post-thaw recovery (%) 0-hr [4]	Post-thaw recovery (%) 24-hr [4]	Post-thaw recovery (%) 48-hr [4]	Post-thaw viability (%), 24 hours post thaw [5, 10]	Post-thaw viability (%), 48 hours post-thaw [5, 10]	Post-thaw viability (%), 24 hours post thaw [5, 11]	Post-thaw viability (%), 48 hours post-thaw [5, 11]	Post-thaw viability/recovery in fluorescence microscopy images [6]	Growth of cells relative to control [7]	Post-thaw 0 h and 48 h total recovery rates compared with cells incubated only with the media [8]	Average cell diameter relative to cells incubated with only the culture medium [9]	Cytotoxicity ([1]; up to 10 mM)	0-hour post thaw recovery (%) ([3]; incubated with 5 mM for 72 hours)	0-hour post thaw recovery (%) ([3]; incubated with 10 mM for 72 hours)
N[C@@H](Cc1ccccc1)C(=O)OCC(COC(=O)[C@@H](N)Cc1ccccc1)OC(=O)[C@@H](N)Cc1ccccc1 [EGL-3Phe]	apparent cytotoxicity	no toxicity	residual cytotoxicity	≤ 2 mM	66.2 ± 10.1%															
CCC(=O)OC[C@@H](O)[C@@H](O)[C@H](O)[C@@H](O)COC(=O)CC [SorbPr2]						comparable to those obtained with cells frozen in media containing 5% DMSO	72.4 ± 3.4%	65.2 ± 2.2%	153.2 ± 8.0%	94.5 ± 9.1%	130.1 ± 6.8%	128.9 ± 2.5%	183.0 ± 2.9%	much higher recovery than those treated with mannitol or sorbitol	slightly suppressed	above those of cells incubated only with the media	small but statistically significant increases			
CCC(=O)OC[C@@H](O)[C@@H](O)[C@H](O)[C@H](O)COC(=O)CC [MannPr2]						the same as those seen with 5% DMSO	84% and 84.1 ± 3.3%	73.6 ± 3.2%	184% and 184.1 ± 14.2%					much higher recovery than those treated with mannitol or sorbitol	slightly suppressed		small but statistically significant increases			
O=C(OCC(COC(=O)[C@@H]1CCCN1)OC(=O)[C@@H]1CCCN1)[C@@H]1CCCN1 [EGL-3Pro]				≥ 10 mM														didn't show any toxicity	50.1 ± 6.6%	65.3 ± 7.3%
